Molecules are shown by their SMILES.

The subject of one data set is CD8+ T cells. Briefly: CD8+ T cell activation (mLN flow cytometry) and lung histology in IV metastasis model. It is filed as in vivo, BALB/c mice. The conditions noted are these: day 21, vs vehicle. The protocol: FIGS. 23A-23G. Systemic administration of […] induces tumor-specific CD8^+ T cells. (A) Protocol of IV metastasis model. (B) BALB/c mice (n=B-15/group) were i.v. injected with 4T1 cells (2×10^4) on day 0.1V270 (2, 20, or 200 μg/injection) was i.p. administered on days −1, 7, 10, and 14. The numbers of lung nodules were counted on day 21. (C) 200 μg/injection 1V270 was i.p. administered on days −1 or 0 followed by days 7, 10, and 14 where indicated. The numbers of lung nodules were counted on day 21. Each dot indicates an individual mouse and horizontal and vertical bars indicate means±SEM. *P<0.05, **P<0.01 Kruskal-Wallis test with Dunn's post hoc test comparing treatment groups against vehicle group. (D-G) BALB/c mice (n=10/group) were treated with 1V270 (200 μg/injection) on day-1 and 4T1 cells were inoculated on day 0. (D,E) Three weeks later, mLNs cells were stained for CD3 and CD8. Intracellular granzyme B (D) and IFNγ (E) were analyzed by flow cytometry. Data are representative of 2 independent experiments showing similar results. *P<0.05, by the Mann-Whitney U test comparing the 1V270 treatment groups against the vehicle treated group. (F) Histological analysis of lungs on day 21. Representative images of H&E staining and immunohistochemical staining for CD3 and CD45. Scale bar: 100 μm. Original magnification ×200. (G) Tumor-specific cytotoxicity was examined using 4T1 cells as target cells and BALB/3T3 cells as irrelevant target cells. […] The percent specific killing was calculated. Data were analyzed by two-way ANOVA using a Bonferroni post hoc test comparing treatment groups against vehicle group. *P<0.05. […]
To make the single cell suspensions, tumors were dissociated using the mouse tumor dissociation kit (MiltenyiBiotec, San Diego, Calif.) and the gentle MACSOcto Dissociator according to the manufacture's protocol. […] Total cell number was counted by the ViaCount assay (MilliporeSigma, Darmstadt, Germany). […]

A further data set deals with 4T1 cells. Briefly: Ex vivo tumor-specific cytotoxicity study. It is filed as cell-based, BALB/c mice. The conditions noted are these: effector to target cell ratio 16:1; vs vehicle. The protocol:
FIGS. 23A-23G. Systemic administration of […] induces tumor-specific CD8^+ T cells. (A) Protocol of IV metastasis model. (B) BALB/c mice (n=B-15/group) were i.v. injected with 4T1 cells (2×10^4) on day 0.1V270 (2, 20, or 200 μg/injection) was i.p. administered on days −1, 7, 10, and 14. The numbers of lung nodules were counted on day 21. (C) 200 μg/injection 1V270 was i.p. administered on days −1 or 0 followed by days 7, 10, and 14 where indicated. The numbers of lung nodules were counted on day 21. […] Intracellular granzyme B (D) and IFNγ (E) were analyzed by flow cytometry. […] The percent specific killing was calculated. Data were analyzed by two-way ANOVA using a Bonferroni post hoc test comparing treatment groups against vehicle group. *P<0.05. […]
Tumor-specific cytotoxicity was examined using 4T1 cells as target cells and BALB/3T3 cells as irrelevant cells. […] The frequencies of 4T1 (CFSE high) and BALB/3T3 (CFSE low) cells were determined by flow cytometry, and the percent specific killing was calculated. […]
To examine the role of CD8^+ T cells after systemic 1V270 treatment, mediastinal lymph node (mLN) cells, splenocytes, and lung tissues were analyzed in the IV metastasis model on day 21 (FIGS. 23D-2G). Activation of CD8^+ T cells was assessed by intracellular staining for granzyme B and interferon γ (IFNγ). […]

For the compound `CCCCCCCCC=CCCCCCCCC(=O)OCC(COP(=O)(O)OCCNC(=O)c1ccc(Cn2c(=O)[nH]c3c(N)nc(OCCOC)nc32)cc1)OC(=O)CCCCCCCC=CCCCCCCCC` (stereo not shown) [1V270], the “infiltration of CD45+CD3+ cells in the pulmonary tumor microenvironment” value with CD8+ T cells (histology) is “higher infiltration”. Besides, in the data set with CD8+ T cells (mLN, 1V270 200 μg day -1), the “percentage of IFNγ positive CD8+ T cells” value is on record as “Significantly higher percentages” and the “percentage of granzyme B positive CD8+ T cells” value is “Significantly higher percentages”. The “tumor-specific cytotoxicity of CD8+ T cells” value in the data set on 4T1 cells was “significantly higher tumor-specific cytotoxicity”.

These data come from patent US20200087625A1, “METHODS FOR ISOLATING, EXPANDING AND ADMINISTERING CANCER SPECIFIC CD8+ T CELLS” (priority 2017, published 2020).
